Assay results reported in patent US11419856B2, “Pharmaceutical combinations for use in the treatment of neoplastic diseases” (Basilea Pharmaceutica International AG, priority 2017, dated 2022).
Like-named read-outs stand apart in the source and are kept apart here.

Key:
[1] = tested on: HCC1395; experiment: Soft agar assay, IC50 of single agents in HCC1395; type: cell-based; details: Homo sapiens
Protocol: (§1) Example 5: Determination of Drug Interaction in Cell Lines by Soft Agar Assay
(§2) The combination of BAL101553 with eribulin was tested in various cell lines by soft agar assay. Table 1 and Table 2 present the results according to coefficient of drug interaction based on colony number (Table 1) and total area of colonies (Table 2). In both cases the coefficient of drug interaction is calculated according to the formula described in Zhao et al., J Intercult Ethnopharmacol. 2014, 3(2): 68-72): (combination/untreated)/[(compound1/untreated)×(compound2/untreated)]

[2] = tested on: microtubules (soluble vs polymerized tubulin), MDA-MB-231 cells; experiment: Cellular microtubule destabilization assay and immunoblotting for tubulin; type: cell-based, human; details: 2 hours
Protocol: The following human cell line was used: MDA-MB-231 (ATCC: HTB-26). In addition the following enhanced green fluorescent protein (EGFP)-transfected human cell lines were used: NCI-H460 (ATCC: HTB-177) (H460GFP) and Jurkat (ATCC: TIB-152) (JurkatGFP). NCI-H460 and Jurkat cell lines were cultured in RPMI-1640 tissue culture medium containing 10% (v/v) fetal calf serum, 2 mM glutamine, non-essential amino acids and 50 μg/ml penicillin/streptomycin (Complete medium) (Sigma, Buchs, Switzerland). The MDA-MB-231 cell line was cultured in Dulbecco's Modified Eagle Medium (DMEM) (high glucose) tissue culture medium containing 10% (v/v) fetal calf serum, 1 mM sodium pyruvate and 50 μg/ml penicillin/streptomycin (i.e. Complete Medium) (Sigma, Buchs, Switzerland).
General growth conditions were 37° C. and 7.5% CO2. For the microtubule destabilization assay cell lines were cultured in 5% CO2.
Trypsinized MDA-MB-231 cells (500′000 cells per treatment) were treated in 1 mL medium containing BAL27862 and/or eribulin (Halaven®, Ch.-B. 60363CRN1, Eisai) or appropriate vehicle control (dimethylsulfoxide (DMSO)) for 2 hours in a water bath at 37° C. […]

[3] = tested on: A549; experiment: Soft agar assay, IC50 of single agents in A549; type: cell-based; details: Homo sapiens
Protocol: as §1, §2

[4] = tested on: MDA-MB-231 cells; experiment: Soft agar clonogenic (colony outgrowth) assay, anti-proliferative IC50; type: cell-based; details: Homo sapiens
Protocol: Cells were plated in soft agar in 24-well plates according to the assay introduced by Hamburger & Salmon (Primary bioassay of human tumor stem cells, Science, 1977, 197:461-463). Each test well contained three layers of equal volume: 2 layers of semi-solid medium (bottom and top layer), and one layer of medium supernatant, with or without test compound (drug overlay on top of the semi-solid medium layer).
The bottom agar layer consisted of 0.2 mL/well IMDM supplemented with 20% (v/v) fetal calf serum, penicillin/streptomycin 50 μg/mL and 0.75% (w/v) bacto agar (BD Biosciences, #214050). For the top agar layer, 10′000-20′000 cells were added to 0.2 mL of the same IMDM medium supplemented with 0.35% (w/v) bacto agar and plated onto the bottom layer. For the drug overlay, the test compounds were applied by continuous exposure in 0.2 mL IMDM medium on top of the two agar layers. The drug overlay was added directly after seeding the cells as 3-fold concentrated solution and changed carefully every 3-4 days. Every 24-well plate contained untreated controls and samples in duplicates. Cultures were incubated at 37° C. and 5% CO2 for 6-14 days. 24 hours prior to evaluation, vital colonies were stained with a sterile aqueous solution of 2-(4-iodophenyl)-3-(4-nitrophenyl)-5-phenyltetrazolium chloride (Sigma, #I-8377, 1 mg/mL, 100 μL/well) (Alley M C et al., Life Sci. 1982, 31:3071-3078) and were counted with an automatic image analysis system (GelCount, Oxford Optronix). IC50-values were determined by plotting compound concentrations versus relative colony counts. Relative drug effects were expressed by the maximum effect of the mean number of colonies in the treated wells in comparison to the control wells.

[5] = read-out: IC50 values in soft agar assay
[6] = soft agar clonogenic assay, data not shown, read-out: anti-proliferative IC50

Compound | IC50 [1] [nM] | microtubule destabilizing activity (soluble vs particulate tubulin, Western blot) ([2]; single agent 20 and 30 nM (FIG. 5A)) | IC50 [3] [nM] | IC50 [4, 5] [nM] | IC50 [4, 6] [nM] | microtubule destabilizing activity (soluble vs particulate tubulin, Western blot) ([2]; single agent 0.2 nM and 2 nM)
N#CCCNc1nonc1-c1nc2ccccc2n1CC(=O)c1ccc(N)cc1 [BAL27862, 3-(4-{1-[2-(4-Amino-phenyl)-2-oxo-ethyl]-1H-benzoimidazol-2-yl}-furazan-3-ylamino)-propionitrile] | 10 | concentration-dependent but incomplete destabilizing effect | 25 | 12 | 12 | –
C=C1C[C@@H]2CC[C@@]34C[C@H]5O[C@H]6[C@@H](O3)[C@H]3O[C@H](CC[C@@H]3O[C@H]6[C@H]5O4)CC(=O)C[C@@H]3[C@@H](OC)[C@@H](C[C@H](O)CN)O[C@H]3C[C@H]3O[C@@H](CC[C@@H]1O2)C[C@@H](C)C3=C.CS(=O)(=O)O [Eribulin, (2R, 3R, 3aS, 7R, 8aS, 9S, 10aR, 11S, 12R, 13aR, 13bS, 15S, 18S, 21S, 24S, 26R, 28R, 29aS)-2-[(2S)-3-Amino-2-hydroxypropyl]-3-methoxy-26-methyl-20,27-dimethylidenehexacosahydro-11,15:18,21:24,28-triepoxy-7,9-ethano-12,15-methano-9H,15H-furo[3,2-i]furo[2′,3′:5,6]pyrano[4,3-b][1,4]dioxacyclopentacosin-5(4H)-one methanesulfonate (salt)] | 0.5 | – | 0.25 | 0.111 | 0.1 | only a small increase in soluble tubulin
